We go through three molecules from patent US12551472B2, “Compositions and methods using trigonelline to produce intracellular nicotinamide adenine dinucleotide (NAD+) for treating or preventing physiological disorders or states” (SOCIETE DES PRODUITS NESTLE S.A., priority 2019, dated 2026).

For one assay, the system named is C57BL/6JRj male mice. Kind of assay: Enzymatic NAD+ measurement in mouse liver after oral gavage. It counts as in vivo. To be noted: equimolar of 300 mg/kg trigonelline, 120 minutes (FIG. 5). The procedure: 10 weeks C57BL/6JRj male mice received trigonelline (sigma #T5509) or fenugreek seed extract enriched in trigonelline (40.45% trigonelline) by oral gavage (equimolar of 300 mg/kg trigonelline, n=8/group). After 120 minutes treatment, the liver was harvested and flash frozen in liquid nitrogen. NAD^+ was measured in liver using an enzymatic method adapted from Dall, M., et al., Mol Cell Endocrinol, 2018. 473: p. 245-256.

In assay [1] the test system is Human Skeletal Muscle Myotubes (HSMM). Kind of assay: Colorimetric NAD+ quantification in differentiated human primary myoblasts. It counts as cell-based. To be noted: 16 h, different doses (FIG. 4). The method, then: After one day, the differentiation is induced by a medium change for 4 days. Cells were treated with synthetic trigonelline monohydrate (FIG. 4A) or with Fenugreek seed extract enriched in trigonelline containing 40.45% trigonelline (FIG. 4B) for 16 h at difference doses. NAD^+ was measured using colorimetric NAD^+ quantification assay (Biovision NAD^+/NADH Quantitation Colorimetric Kit #k337-100).

In assay [2] the test system is C. elegans. To be noted: 1 mM, day 8 and day 11 old worms, vs control (FIG. 7D). An excerpt: 45 to 60 worms per condition were manually scored for mobility after poking. Worms that were unable to respond to any repeated stimulation were scored as dead. […] Trigonelline treatment and experimental measurements were started at Day 1 of wild type N2 worm adulthood, in a regimen of chronic exposure til experiments termination.

Assay [3] concerns C. elegans. To be noted: 1 mM, chronic exposure from Day 1 adulthood, wild type N2 (FIG. 7A). The procedure: Worm lifespan tests were performed using about 100 animals per condition and scored manually every other day. Trigonelline treatment and experimental measurements were started at Day 1 of wild type N2 worm adulthood, in a regimen of chronic exposure till experiments termination.

In assay [4] the test system is C. elegans. The procedure: C. elegans mobility test was performed using the Movement Tracker software (Mouchiroud, L. et al. Curr Protoc Neurosci 77, 8.37.1-8.37.21 (2016)). The experiments were repeated at least twice. Trigonelline treatment and experimental measurements were started at Day 1 of wild type N2 worm adulthood, in a regimen of chronic exposure till experiments termination.

In assay [5] the test system is C. elegans. To be noted: 1 mM trigonelline chloride, day 8 old worms, vs control (FIG. 8). The method, then:
Absolute quantification of the mtDNA copy number in wild type N2 worms was performed by real-time PCR. Relative values for nduo-1, and act-1 were compared within each sample to generate a ratio representing the relative level of mitochondrial DNA per nuclear genome. The average of at least two technical repeats was used for each biological data point. Each experiment was performed on at least ten independent biological samples (individual worms). Trigonelline treatment with 1 mM trigonelline chloride and experimental measurements were started at Day 1 of wild type N2 worm adulthood, in a regimen of chronic exposure till experiments termination.

The test system of assay [6] is RW1596 (myo-3p::GFP) worms. To be noted: 1 mM trigonelline chloride, 11 day old worms vs age matched control. The procedure: RW1596 (myo-3p::GFP) worms were collected at Day 1 (young adults) and at Day 11 (aged animals) for muscle integrity assessment. Worms were immobilized with tetramisole and analyzed by confocal microscopy, to assess the muscle fibers morphology shown by GFP fluorescence imaging. Trigonelline treatment with 1 mM trigonelline chloride and experimental measurements were started at Day 1 of wild type N2 worm adulthood, in a regimen of chronic exposure till experiments termination.

Assay [7] relates to Human Skeletal Muscle Myotubes (HSMM). To be noted: 500 μM, 6 h, relative to control, LC-MS (FIG. 2A). The method, then: Human primary myoblasts from two different donors were seeded in 6 well plates at a density of 200′000 cells per well in skeletal muscle growth medium (SKM-M, AMSbio). After one day, the differentiation was induced by a medium change for 4 days using differentiation culture medium (Gibco No. 31330-028). Cells were treated with isotopically labelled trigonelline (^13C carbonyl; 3^2H on methyl) for 6 h.
Cell extracts were separated on a Vanquish UHPLC+focused LC system (Thermo Scientific) with a hydrophilic liquid chromatography (HILIC) iHILIC-Fusion(P) column (Hilicon) carrying the dimensions 150×2.1 mm, 5 μm and a guard column (iHILIC-fusion(P), Hilicon) in front. The separation of metabolites was achieved by applying a linear solvent gradient in normal phase at 0.25 mL/min flow rate and 35° C. of temperature.
The eluting metabolites were analyzed with an Orbitrap Fusion Lumos mass spectrometer (Thermo Scientific) with a heated electrospray ionization (H-ESI) source in positive and negative mode at a resolution of 60,000 at m/z of 200. Instrument control and data analysis were conducted using Xcalibur (Thermo Scientific).

Turning to `C[n+]1cccc(C(=O)O)c1.[OH-]` [chemically synthesized trigonelline], the “NAD+ content in the liver compared to the control” value with C57BL/6JRj male mice was “significant increase”. Besides, the “NAD+ content compared to the control” value in assay [1] is “significant increase”.

Take `C[n+]1cccc(C(=O)O)c1` [trigonelline chloride]: the “Stimulated mobility score (worms responsive to a physical stimulus)” value in the assay on C. elegans [2] is on record as “more responsive”. The molecule further had an Increase in lifespan in the assay with C. elegans [3] of 21%. The “Distance travelled in advanced aging phase compared to control” value in the assay with C. elegans [4] (1 mM (FIG. 7C)) is “significantly increased”. Besides, the “Mean speed compared to the control” value with C. elegans [4] (1 mM, from day 1 adulthood (FIG. 7B)) is reported as “increased”.

On to `C[n+]1cccc(C(=O)[O-])c1` [trigonelline, 1-methylpyridin-1-ium-3-carboxylate], for which the “Mitochondrial expression relative to nuclear expression (nduo-1/act-1, mt/nDNA)” value with C. elegans [5] is “higher”. The “Myofibrillar structure (GFP-tagged myosin)” value in assay [6] is listed as “improved more organized myofibrillar structure”. Further, the “NAD+ levels” value in assay [7] is reported as “enhancement”.
